Test results published in publication PMC9856672, “SGC-CAMKK2-1: A Chemical Probe for CAMKK2” (Cells, 2023).

Tests used:
[1] = Single dose IP pharmacokinetic study in mice; assay type: in vivo, CD-1 mice; settings: mouse, 10 mg/kg IP, plasma at 0.5, 1, 3, 8 h
Description: CD-1 mice with weights 23–25 g were purchased from Charles River Laboratories.
The animal experiments were performed at Alliance Pharma (Malvern, PA, USA) in accordance with the guide for the care and use of laboratory animals. Alliance Pharma is accredited by the Association for Assessment and Accreditation of Laboratory Animal Care (AAALAC).
The test compounds were dissolved in DMSO and then diluted to the appropriate concentration with the vehicle. For formulation we targeted the minimal amount of DMSO that could be used in combination with a formulation composed of 0.5% HPMC/0.2% Polysorbate 80. […] Blood was collected at t = 0.5, 1, 3, and 8 h and immediately spun for 3 min, the plasma was collected, and compound levels were quantified with HPLC/MS. The raw data are available in the Supplemental Information.
With the probe molecule having favorable selectivity and potency in vitro and in a cellular context, we next wanted to determine its suitability for in vivo experiments. SGC-CAMKK2-1 (5) was progressed to a single dose mouse intraperitoneal (I.P) experiment.

KIT(A829P) = molecular target: T1, KIT(A829P) (Homo sapiens, UniProt P10721, A829P); test: KINOMEscan 1 μM, KIT(A829P); assay type: binding; settings: 1000 nM; Entrez KIT; read-out: Percent Control
T1 construct: purchased Eurofins DiscoverX KINOMEscan
Description: (§1) Supplement cells-12-00287-s001.zip/File S2. KinomeScan data for the CAMKK2 probe and negative control.xlsx, sheet "SGC-CAMKK2-1" | column: Percent Control

INSR = molecular target: T2, INSR (Homo sapiens, UniProt P06213); test: KINOMEscan 1 μM, INSR; assay type: binding; settings: 1000 nM; Entrez INSR; read-out: Percent Control
T2 construct: purchased Eurofins DiscoverX KINOMEscan
Description: as §1

CSNK1G2 = molecular target: T3, CSNK1G2 (Homo sapiens, UniProt P78368); test: KINOMEscan 1 μM, CSNK1G2; assay type: binding; settings: 1000 nM; Entrez CSNK1G2; read-out: Percent Control
T3 construct: purchased Eurofins DiscoverX KINOMEscan
T3 sequence (P78368 whole entry): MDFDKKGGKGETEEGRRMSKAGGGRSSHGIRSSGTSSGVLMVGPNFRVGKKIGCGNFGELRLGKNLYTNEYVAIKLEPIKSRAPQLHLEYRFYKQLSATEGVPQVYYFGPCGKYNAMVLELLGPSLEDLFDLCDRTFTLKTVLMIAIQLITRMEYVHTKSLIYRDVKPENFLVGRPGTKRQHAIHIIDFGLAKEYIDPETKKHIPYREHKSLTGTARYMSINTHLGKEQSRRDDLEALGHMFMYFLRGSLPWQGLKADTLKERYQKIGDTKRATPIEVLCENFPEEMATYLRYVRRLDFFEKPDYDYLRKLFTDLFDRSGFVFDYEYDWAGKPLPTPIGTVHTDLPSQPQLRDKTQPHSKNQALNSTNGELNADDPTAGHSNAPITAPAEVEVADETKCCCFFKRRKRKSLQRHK
Description: as §1

FES = molecular target: T4, FES (Homo sapiens, UniProt P07332); test: KINOMEscan 1 μM, FES; assay type: binding; settings: 1000 nM; Entrez FES; read-out: Percent Control
T4 construct: purchased Eurofins DiscoverX KINOMEscan
Description: as §1

CAMK1D = molecular target: T5, CAMK1D (Homo sapiens, UniProt Q8IU85); test: KINOMEscan 1 μM, CAMK1D; assay type: binding; settings: 1000 nM; Entrez CAMK1D; read-out: Percent Control
T5 construct: purchased Eurofins DiscoverX KINOMEscan
Description: as §1

DAPK2 = molecular target: T6, DAPK2 (Homo sapiens, UniProt Q9UIK4); test: KINOMEscan 1 μM, DAPK2; assay type: binding; settings: 1000 nM; Entrez DAPK2; read-out: Percent Control
T6 construct: purchased Eurofins DiscoverX KINOMEscan
T6 sequence (Q9UIK4 whole entry): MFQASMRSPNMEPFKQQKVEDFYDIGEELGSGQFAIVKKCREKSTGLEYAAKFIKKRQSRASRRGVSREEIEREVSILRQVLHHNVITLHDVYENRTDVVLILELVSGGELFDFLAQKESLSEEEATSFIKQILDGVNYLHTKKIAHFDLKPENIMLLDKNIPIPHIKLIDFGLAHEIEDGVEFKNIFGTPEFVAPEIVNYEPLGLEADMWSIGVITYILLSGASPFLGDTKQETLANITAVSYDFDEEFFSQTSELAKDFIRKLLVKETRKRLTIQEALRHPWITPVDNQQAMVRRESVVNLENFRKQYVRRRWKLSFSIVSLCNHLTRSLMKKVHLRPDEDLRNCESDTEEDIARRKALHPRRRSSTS
Description: as §1

[2] = molecular target: T7, ABL1(M351T)-phosphorylated (Homo sapiens, UniProt P00519, M351T); test: KINOMEscan 1 μM, ABL1(M351T)-phosphorylated; assay type: binding; settings: 1000 nM; Entrez ABL1; read-out: Percent Control
T7 construct: purchased Eurofins DiscoverX KINOMEscan
Description: as §1

AMPK-alpha2 = molecular target: T8, AMPK-alpha2 (Homo sapiens, UniProt P54646); test: KINOMEscan 1 μM, AMPK-alpha2; assay type: binding; settings: 1000 nM; Entrez PRKAA2; read-out: Percent Control
T8 construct: purchased Eurofins DiscoverX KINOMEscan
T8 sequence (P54646 whole entry): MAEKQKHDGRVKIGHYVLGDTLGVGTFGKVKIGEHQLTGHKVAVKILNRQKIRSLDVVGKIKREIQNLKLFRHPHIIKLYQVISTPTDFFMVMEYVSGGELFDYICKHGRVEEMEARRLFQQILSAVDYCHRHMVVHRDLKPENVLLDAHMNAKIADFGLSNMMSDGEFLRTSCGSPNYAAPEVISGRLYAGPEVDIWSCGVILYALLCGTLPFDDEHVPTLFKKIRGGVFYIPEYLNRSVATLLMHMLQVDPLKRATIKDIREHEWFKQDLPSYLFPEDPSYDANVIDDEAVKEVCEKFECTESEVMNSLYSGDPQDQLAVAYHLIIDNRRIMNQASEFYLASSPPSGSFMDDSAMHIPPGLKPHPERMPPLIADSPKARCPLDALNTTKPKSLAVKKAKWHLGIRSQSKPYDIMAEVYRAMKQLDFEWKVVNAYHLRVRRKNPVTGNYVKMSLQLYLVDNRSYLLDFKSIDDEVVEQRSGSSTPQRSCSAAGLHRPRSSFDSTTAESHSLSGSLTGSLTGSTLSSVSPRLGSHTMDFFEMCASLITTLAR
Description: as §1

AXL = molecular target: T9, AXL (Homo sapiens, UniProt P30530); test: KINOMEscan 1 μM, AXL; assay type: binding; settings: 1000 nM; Entrez AXL; read-out: Percent Control
T9 construct: purchased Eurofins DiscoverX KINOMEscan
Description: as §1

DAPK3 = molecular target: T10, DAPK3 (Homo sapiens, UniProt O43293); test: KINOMEscan 1 μM, DAPK3; assay type: binding; settings: 1000 nM; Entrez DAPK3; read-out: Percent Control
T10 construct: purchased Eurofins DiscoverX KINOMEscan
Description: as §1

GRK3 = molecular target: T11, GRK3 (Homo sapiens, UniProt P35626); test: KINOMEscan 1 μM, GRK3; assay type: binding; settings: 1000 nM; Entrez ADRBK2; read-out: Percent Control
T11 construct: purchased Eurofins DiscoverX KINOMEscan
Description: as §1

HIPK2 = molecular target: T12, HIPK2 (Homo sapiens, UniProt Q9H2X6); test: KINOMEscan 1 μM, HIPK2; assay type: binding; settings: 1000 nM; Entrez HIPK2; read-out: Percent Control
T12 construct: purchased Eurofins DiscoverX KINOMEscan
T12 sequence (Q9H2X6 whole entry): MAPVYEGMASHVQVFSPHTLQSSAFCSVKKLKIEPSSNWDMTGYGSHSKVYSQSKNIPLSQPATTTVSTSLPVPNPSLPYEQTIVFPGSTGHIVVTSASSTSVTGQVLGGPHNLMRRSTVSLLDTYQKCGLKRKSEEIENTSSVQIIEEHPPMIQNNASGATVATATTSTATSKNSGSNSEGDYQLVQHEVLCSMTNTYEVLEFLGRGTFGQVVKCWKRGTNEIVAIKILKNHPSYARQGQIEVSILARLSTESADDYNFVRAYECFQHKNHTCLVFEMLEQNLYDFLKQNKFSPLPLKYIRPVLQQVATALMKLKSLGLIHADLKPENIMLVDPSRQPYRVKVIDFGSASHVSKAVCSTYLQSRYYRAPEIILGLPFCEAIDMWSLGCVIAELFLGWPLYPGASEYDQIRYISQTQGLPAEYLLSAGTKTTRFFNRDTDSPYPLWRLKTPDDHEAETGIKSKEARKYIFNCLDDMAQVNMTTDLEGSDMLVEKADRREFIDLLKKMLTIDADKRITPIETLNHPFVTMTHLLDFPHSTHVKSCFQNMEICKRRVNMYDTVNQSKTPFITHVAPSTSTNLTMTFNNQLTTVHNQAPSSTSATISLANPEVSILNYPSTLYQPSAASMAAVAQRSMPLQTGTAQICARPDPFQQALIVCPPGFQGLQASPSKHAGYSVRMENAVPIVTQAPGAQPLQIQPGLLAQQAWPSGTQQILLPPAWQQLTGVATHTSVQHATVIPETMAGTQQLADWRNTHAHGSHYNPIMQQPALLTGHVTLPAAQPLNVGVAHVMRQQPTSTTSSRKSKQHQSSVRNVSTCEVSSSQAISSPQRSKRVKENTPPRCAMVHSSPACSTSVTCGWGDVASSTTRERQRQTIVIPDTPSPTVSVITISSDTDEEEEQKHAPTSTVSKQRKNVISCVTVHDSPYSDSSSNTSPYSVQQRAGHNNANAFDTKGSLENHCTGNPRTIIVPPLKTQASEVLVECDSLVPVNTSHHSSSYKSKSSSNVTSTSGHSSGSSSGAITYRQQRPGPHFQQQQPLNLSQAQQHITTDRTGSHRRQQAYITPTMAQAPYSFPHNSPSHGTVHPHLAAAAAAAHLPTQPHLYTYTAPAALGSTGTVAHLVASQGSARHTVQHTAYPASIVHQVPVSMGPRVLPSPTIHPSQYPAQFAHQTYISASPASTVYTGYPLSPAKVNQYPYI
Description: as §1

MST1 = molecular target: T13, MST1 (Homo sapiens, UniProt Q13043); test: KINOMEscan 1 μM, MST1; assay type: binding; settings: 1000 nM; Entrez STK4; read-out: Percent Control
T13 construct: purchased Eurofins DiscoverX KINOMEscan
Description: as §1

NEK6 = molecular target: T14, NEK6 (Homo sapiens, UniProt Q9HC98); test: KINOMEscan 1 μM, NEK6; assay type: binding; settings: 1000 nM; Entrez NEK6; read-out: Percent Control
T14 construct: purchased Eurofins DiscoverX KINOMEscan
Description: as §1

PFCDPK1(P.falciparum) = molecular target: T15, PFCDPK1(P.falciparum) (Plasmodium falciparum, UniProt P62344); test: DiscoverX KINOMEscan binding assay at 1 μM, PFCDPK1(P.falciparum); settings: PFCDPK1(P.falciparum) (CDPK1); Compound Concentration 1000 nM; read-out: Percent Control
T15 construct: purchased Eurofins DiscoverX KINOMEscan
T15 sequence (P62344 whole entry): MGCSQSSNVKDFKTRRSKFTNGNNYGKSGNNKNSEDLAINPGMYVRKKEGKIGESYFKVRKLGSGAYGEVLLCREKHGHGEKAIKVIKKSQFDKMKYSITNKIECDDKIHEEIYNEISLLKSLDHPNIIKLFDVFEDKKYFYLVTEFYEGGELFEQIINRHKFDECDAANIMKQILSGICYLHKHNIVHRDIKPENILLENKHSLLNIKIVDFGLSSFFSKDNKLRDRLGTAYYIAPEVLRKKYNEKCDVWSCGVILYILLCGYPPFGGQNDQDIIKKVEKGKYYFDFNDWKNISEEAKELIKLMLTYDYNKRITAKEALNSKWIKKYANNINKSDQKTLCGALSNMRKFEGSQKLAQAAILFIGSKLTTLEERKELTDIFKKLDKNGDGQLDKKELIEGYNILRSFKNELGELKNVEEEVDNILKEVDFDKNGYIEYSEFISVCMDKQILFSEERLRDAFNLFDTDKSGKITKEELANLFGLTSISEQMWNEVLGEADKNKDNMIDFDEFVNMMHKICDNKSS
Description: as §1

PIK3CD = molecular target: T16, PIK3CD (Homo sapiens, UniProt O00329); test: DiscoverX KINOMEscan binding assay at 1 μM, PIK3CD; settings: Compound Concentration 1000 nM, read-out: Percent Control
T16 construct: purchased Eurofins DiscoverX KINOMEscan
Description: as §1

WNK1 = molecular target: T17, WNK1 (Homo sapiens, UniProt Q9H4A3); test: DiscoverX KINOMEscan binding assay at 1 μM, WNK1; settings: Compound Concentration 1000 nM, read-out: Percent Control
T17 construct: purchased Eurofins DiscoverX KINOMEscan
Description: as §1

KIT(D816V) = molecular target: T18, KIT(D816V) (Homo sapiens, UniProt P10721, D816V); test: KINOMEscan at 1 μM, KIT(D816V); assay type: binding; settings: 1000 nM, read-out: Percent Control
T18 construct: purchased Eurofins DiscoverX KINOMEscan
T18 sequence (P10721 26-976 D816V): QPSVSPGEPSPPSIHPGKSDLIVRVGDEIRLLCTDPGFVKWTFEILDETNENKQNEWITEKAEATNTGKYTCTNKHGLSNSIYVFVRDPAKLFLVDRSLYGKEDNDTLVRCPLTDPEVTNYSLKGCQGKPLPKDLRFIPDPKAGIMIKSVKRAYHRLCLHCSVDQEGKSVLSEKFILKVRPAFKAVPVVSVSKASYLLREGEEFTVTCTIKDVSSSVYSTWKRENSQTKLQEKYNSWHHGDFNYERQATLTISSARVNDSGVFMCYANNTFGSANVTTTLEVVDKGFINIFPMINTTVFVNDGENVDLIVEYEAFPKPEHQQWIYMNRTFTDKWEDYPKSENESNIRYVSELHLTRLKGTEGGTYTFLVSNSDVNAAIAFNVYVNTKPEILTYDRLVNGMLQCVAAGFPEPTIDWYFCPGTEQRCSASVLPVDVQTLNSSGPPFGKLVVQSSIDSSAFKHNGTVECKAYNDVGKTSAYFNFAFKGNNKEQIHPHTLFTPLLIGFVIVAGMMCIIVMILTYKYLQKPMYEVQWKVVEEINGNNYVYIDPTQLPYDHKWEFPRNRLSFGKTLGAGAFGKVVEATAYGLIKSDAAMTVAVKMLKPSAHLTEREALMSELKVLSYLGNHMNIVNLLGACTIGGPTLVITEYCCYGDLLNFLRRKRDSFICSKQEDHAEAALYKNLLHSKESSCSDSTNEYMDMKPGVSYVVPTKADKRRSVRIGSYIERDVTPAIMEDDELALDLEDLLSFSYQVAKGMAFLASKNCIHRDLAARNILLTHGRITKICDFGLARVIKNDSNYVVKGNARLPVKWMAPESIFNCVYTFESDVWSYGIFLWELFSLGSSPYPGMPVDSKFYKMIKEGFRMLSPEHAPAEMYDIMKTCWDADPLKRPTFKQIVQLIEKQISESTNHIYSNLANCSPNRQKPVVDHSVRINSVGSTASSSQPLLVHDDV
Description: (§2) Supplement cells-12-00287-s001.zip/File S2. KinomeScan data for the CAMKK2 probe and negative control.xlsx, sheet "SGC-CAMKK2-1N" | column: Percent Control

EPHB6 = molecular target: T19, EPHB6 (Homo sapiens, UniProt O15197); test: KINOMEscan at 1 μM, EPHB6; assay type: binding; settings: 1000 nM, read-out: Percent Control
T19 construct: purchased Eurofins DiscoverX KINOMEscan
Description: as §2

NIM1 = molecular target: T20, NIM1 (Homo sapiens, UniProt Q8IY84); test: KINOMEscan at 1 μM, NIM1; assay type: binding; settings: 1000 nM, read-out: Percent Control
T20 construct: purchased Eurofins DiscoverX KINOMEscan
T20 sequence (Q8IY84 whole entry): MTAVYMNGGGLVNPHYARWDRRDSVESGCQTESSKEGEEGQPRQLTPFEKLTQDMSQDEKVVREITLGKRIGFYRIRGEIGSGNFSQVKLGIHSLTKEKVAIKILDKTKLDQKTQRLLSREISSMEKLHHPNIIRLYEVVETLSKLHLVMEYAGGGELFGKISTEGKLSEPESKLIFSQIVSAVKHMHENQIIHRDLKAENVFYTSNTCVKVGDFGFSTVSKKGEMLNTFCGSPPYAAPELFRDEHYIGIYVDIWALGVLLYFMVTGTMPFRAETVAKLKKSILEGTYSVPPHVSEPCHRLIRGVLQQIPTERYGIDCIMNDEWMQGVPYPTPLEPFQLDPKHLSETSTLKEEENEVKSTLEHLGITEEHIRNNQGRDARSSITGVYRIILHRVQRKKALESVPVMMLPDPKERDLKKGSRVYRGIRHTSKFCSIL
Description: as §2

MKK7 = molecular target: T21, MKK7 (Homo sapiens, UniProt O14733); test: KINOMEscan at 1 μM, MKK7; assay type: binding; settings: 1000 nM, read-out: Percent Control
T21 construct: purchased Eurofins DiscoverX KINOMEscan
Description: as §2

MYLK2 = molecular target: T22, MYLK2 (Homo sapiens, UniProt Q9H1R3); test: KINOMEscan at 1 μM, MYLK2; assay type: binding; settings: 1000 nM, read-out: Percent Control
T22 construct: purchased Eurofins DiscoverX KINOMEscan
T22 sequence (Q9H1R3 whole entry): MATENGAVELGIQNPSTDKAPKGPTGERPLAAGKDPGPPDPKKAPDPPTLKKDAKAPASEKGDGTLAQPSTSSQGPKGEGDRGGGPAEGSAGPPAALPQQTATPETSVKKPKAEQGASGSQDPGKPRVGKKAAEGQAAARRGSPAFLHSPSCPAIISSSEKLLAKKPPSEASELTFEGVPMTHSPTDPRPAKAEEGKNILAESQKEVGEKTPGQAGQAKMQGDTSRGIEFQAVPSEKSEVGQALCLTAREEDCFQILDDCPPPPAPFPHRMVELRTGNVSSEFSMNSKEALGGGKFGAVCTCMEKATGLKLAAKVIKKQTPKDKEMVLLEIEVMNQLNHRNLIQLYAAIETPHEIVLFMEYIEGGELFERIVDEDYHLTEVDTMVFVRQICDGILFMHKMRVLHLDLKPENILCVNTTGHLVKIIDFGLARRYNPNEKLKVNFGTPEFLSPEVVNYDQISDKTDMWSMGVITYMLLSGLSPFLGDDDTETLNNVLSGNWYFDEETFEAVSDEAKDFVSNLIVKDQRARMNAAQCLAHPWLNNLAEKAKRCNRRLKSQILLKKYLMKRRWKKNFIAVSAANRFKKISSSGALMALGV
Description: as §2

ERK8 = molecular target: T23, ERK8 (Homo sapiens, UniProt Q8TD08); test: KINOMEscan at 1 μM, ERK8; assay type: binding; settings: 1000 nM, read-out: Percent Control
T23 construct: purchased Eurofins DiscoverX KINOMEscan
Description: as §2

EPHA3 = molecular target: T24, EPHA3 (Homo sapiens, UniProt P29320); test: KINOMEscan at 1 μM, EPHA3; assay type: binding; settings: 1000 nM, read-out: Percent Control
T24 construct: purchased Eurofins DiscoverX KINOMEscan
Description: as §2

FAK = molecular target: T25, FAK (Homo sapiens, UniProt Q05397); test: KINOMEscan at 1 μM, FAK; assay type: binding; settings: 1000 nM, read-out: Percent Control
T25 construct: purchased Eurofins DiscoverX KINOMEscan
Description: as §2

RIPK2 = molecular target: T26, RIPK2 (Homo sapiens, UniProt O43353); test: KINOMEscan at 1 μM, RIPK2; assay type: binding; settings: 1000 nM, read-out: Percent Control
T26 construct: purchased Eurofins DiscoverX KINOMEscan
Description: as §2

GRK4 = molecular target: T27, GRK4 (Homo sapiens, UniProt P32298); test: KINOMEscan binding assay at 1 μM, GRK4; settings: Compound Concentration 1000 nM; read-out: Percent Control
T27 construct: purchased Eurofins DiscoverX KINOMEscan
Description: as §2

Cc1cccc(-c2cnc3occ(-c4ccc(C(=O)O)c(C5CCCC5)c4)c3c2)c1 [Compound 5]
plasma concentration / in vivo PK (in words) [1]: poor in vivo PK

Cc1cccc(-c2cnc3occ(-c4ccc(C(=O)O)c(C5CCCC5)c4)c3c2)c1 [SGC-CAMKK2-1 (YL-36)]
remaining binding at 1 µM (KIT(A829P)): 61%
remaining binding at 1 µM (INSR): 77%
remaining binding at 1 µM (CSNK1G2): 88%
remaining binding at 1 µM (FES): 88%
remaining binding at 1 µM (CAMK1D): 94%
remaining binding at 1 µM (DAPK2): 94%
remaining binding at 1 µM [2]: 100%
remaining binding at 1 µM (AMPK-alpha2): 100%
remaining binding at 1 µM (AXL): 100%
remaining binding at 1 µM (DAPK3): 100%
remaining binding at 1 µM (GRK3): 100%
remaining binding at 1 µM (HIPK2): 100%
remaining binding at 1 µM (MST1): 100%
remaining binding at 1 µM (NEK6): 100%
remaining binding at 1 µM (PFCDPK1(P.falciparum)): 100%
remaining binding at 1 µM (PIK3CD): 100%
remaining binding at 1 µM (WNK1): 100%

O=C(O)c1ccc(-c2coc3ncc(-c4ccccc4)cc23)cc1Cl [SGC-CAMKK2-1N (UNC-YL-83)]
remaining binding at 1 µM (KIT(D816V)): 32%
remaining binding at 1 µM (EPHB6): 75%
remaining binding at 1 µM (NIM1): 81%
remaining binding at 1 µM (MKK7): 82%
remaining binding at 1 µM (MYLK2): 82%
remaining binding at 1 µM (ERK8): 86%
remaining binding at 1 µM (EPHA3): 92%
remaining binding at 1 µM (FAK): 96%
remaining binding at 1 µM (RIPK2): 99%
remaining binding at 1 µM (GRK4): 100%
